The values below come from publication PMC4109680, “Identification and Preclinical Pharmacology of the γ-Secretase Modulator BMS-869780” (International Journal of Alzheimer's Disease, 2014).

Series [1] can be described thus: Rat time course PK/PD, oral dose, indirect response model. In kind it is in vivo. To be noted: female, Sprague-Dawley, plasma. The method, then:
(§1) Figure 8 Analysis of the PK/PD relationship for BMS-869780 in rats and mice. Rats were dosed orally with BMS-869780 at 10 mg/kg, and triple transgenic mice were orally dosed at 30 mg/kg and 100 mg/kg. Additional groups of rats and mice were dosed with vehicle alone. Brain and plasma were harvested at 3, 5, 8, 16, and 24 hours after dosing for determination of brain Aβ1-42 and plasma BMS-869780 concentration. Group sizes were 5 rats or 4 mice. Whiskers represent standard error. […] The data were fit to a one-compartment PK model and the predicted plasma BMS-869780 concentrations are shown for mouse (solid lines) and rat (broken line). […] The data were fitted using the indirect pharmacodynamic response model and predicted values are shown (solid lines). (c) Brain Aβ1-42 levels were determined for the rats dosed with BMS-869780 at 10 mg/kg (▼) or vehicle alone (●). The data were fitted using the indirect pharmacodynamic response model and predicted values are shown (dashed line). (d) Brain Aβ1-40 levels determined in the same rats as illustrated in (c).
(§2) All experimental procedures with animals followed National Institutes of Health guidelines and were authorized by and in compliance with policies of the Bristol-Myers Squibb Animal Use and Care Committee. Mice and rats were housed with a 6:00 AM to 6:00 PM light/dark cycle and allowed free access to food and water. For 3xTg mice, BMS-869780 was dosed in three-month-old females by oral gavage at 6 mL/kg in vehicle consisting of 84% polyethylene glycol average molecular weight of 400 (PEG-400), 15% EtOH, and 1% Tween-80 (w/w/w). The compound was dissolved in EtOH and then diluted with PEG-400 and Tween, after which the vial was sealed, vortexed, and sonicated at 56°C for 1 hour. Animals were euthanized by asphyxiation in CO2. Blood was collected by cardiac puncture and placed into ethylene-diaminetetraacetic acid microtainer tubes for the preparation of plasma. The cerebellum was collected for the determination of compound concentration, and the remaining brain was separated into left and right halves before freezing in liquid nitrogen. For the rat time course study, 8- to 12-week-old female Sprague-Dawley rats were obtained from Charles River Laboratories (Wilmington, MA), BMS-869780 was dosed orally at 4 mL/kg, and brain and plasma samples were collected as described for the 3xTg mice. For the four day repeat dose rat study, BMS-869780 was given by oral gavage in vehicle consisting of PEG-400, PEG-200, D-α-tocopheryl polyethylene glycol succinate, Solutol HS 15, in the ratio 80 : 10 : 5 : 5 (w/w/w/w). Methods for the pharmacokinetics studies in rat, dog, and monkey are described below.
(§3) The data generated in the mouse and rat time course experiments were analyzed sequentially by nonlinear regression (WinNonlin Pharsight Corporation, Mountain View, CA). The pharmacokinetic data were best described by a 1-compartment linear model with first-order absorption and elimination. Subsequently, the pharmacodynamic parameters were estimated from the BMS-869780 plasma concentrations and the observed reductions of brain Aβ1-42 or Aβ1-40 by fitting to the equation for inhibition of synthesis. The goodness-of-fit was determined by visual inspection, Akaike Information Criterion, Schwartz Criterion, examination of the residuals and the coefficient of variation of the parameter estimates.

In another series the test system is brain Aβ1-42. The series is described as above. In kind it is in vivo. To be noted: for IC50: po. The method, then:
as §1, §2, §3

Another series relates to brain Aβ1-42 and Aβ1-40. Nature of the series: Rat 4-day repeat dose, residual brain Aβ by ELISA and immunodepletion. In kind it is in vivo. Here is the method: Figure 7 BMS-869780 dose response and evaluation of residual Aβ levels in rat brain. (a) Groups of rats received intraperitoneal (IP) injections of vehicle or BMS-869780 at doses of 100, 30, 10, 3, 1, and 0.3 mg/kg. Additional rats were dosed with GSI BMS-698861 at 30 mg/kg as a positive control for Aβ-lowering. Group sizes were seven rats for each dose of BMS-869780 and 14 rats for vehicle and GSI dose groups. Brain and plasma were harvested 5 hours after dosing. Brain Aβ1-42 (green), brain Aβ1-40 (blue), brain Aβ1-x (black), and plasma Aβ1-40 (red) were determined. Values are expressed as % relative to vehicle group mean. Whiskers represent standard error. ⊗Aβ1-x was not determined in the groups dosed at 3, 1, and 0.3 mg/kg. (b) Brain Aβ1-40 was plotted against brain Aβ1-42 for each rat dosed with BMS-869780 (black ▼) and for each rat dosed with vehicle (grey ●). Values are expressed as % relative to vehicle group mean. Whiskers represent standard error. […] The respective 95% confidence intervals were 618–1053 nM, 704–1264 nM, and 44–158 nM. (d) Rats were dosed once daily with BMS-869780 for 4 days at 10 and 100 mg/kg or vehicle, plasma, and brain samples were taken 5 hours after the last dose, and immunodepletion of brain extracts was carried out prior to Aβ1-42 ELISA assays. […] After immunodepletion, Aβ1-42 was assayed by ELISA. (e) Same as described in (d), except that Aβ1-40 ELISA was carried out following the immunodepletion.
For immunodepletion of rat brain Aβ, solid phase extracts were pooled within treatment groups. The pools were divided into equal aliquots and incubated with or without monoclonals 565, TSD, 4G8, or 6E10 (10 μg) at 4°C overnight. Protein G beads (50 μL; EZview, Sigma) were added, and incubation was continued with agitation for 1 hour. The beads were removed by centrifugation, and Aβ1-40 and Aβ1-42 in the unbound fraction were quantified by ELISA, as described above.
as §2
(An ELISA detects its analyte on a solid surface through an enzyme-linked reagent.)

Series [2] is described as follows: Prediction of human PK and dose by allometric scaling combined with rat PK/PD. The method, then: Interspecies allometric scaling adjusted for brain weight was used to predict human CLTp, while simple allometric scaling was used to predict Vss. Briefly, the Vss and brain weight adjusted CLTp values from nonclinical species were plotted against body weight on a log-log scale to yield estimates of Vss and CLTp × brain weight in humans. The estimated CLTp × brain weight for human was adjusted for the brain weight of humans to yield a predicted CLTp. […] Noncompartmental analysis was performed using WinNonlin software (version 5.0; Pharsight Corporation, Mountain View, CA). The k a for each species was obtained from the IV and PO (nanosuspensions) of rat, dog, and cynomolgus monkey by deconvolution of plasma concentration-time data using Kinetica (version 5.0; Seattle, WA). The bioavailability was estimated from the nanosuspensions from rat, dog, and cynomolgus monkeys. The average k a and F, along with the Vss and CLTp from allometric scaling, were incorporated into a two-compartment model to predict the human oral plasma concentration-time profiles.

Where [3] appears, read: Rat 10 mg/kg PO solution (observed 0–24 hours).
Setting [4] is: averaged across depleted samples in both dose groups.
[5] abbreviates: four daily doses, 10 and 100 mg/kg, 5 hours after last dose.
Where [6] appears, read: Human 700 mg PO suspension (predicted steady state).

What is called Cmax is the maximum level reached in the sampled fluid or tissue.

Read-outs that look alike come from different tables or passages of the source. A value given as a limit tells only on which side of the number the result lay.

Regarding `COc1cc(Nc2nc3n(n2)CCCC[C@H]3c2ccc(F)cc2)ccc1-n1cnc(Cl)c1` [BMS-869780], the k el in series [1] (oral, 10 mg/kg, rat, 1-compartment PK model) was 2.78e-05 s⁻¹. Also, the AUC(0-t) in series [1] (setting [3]) is 46.3 µM·h. In addition, in the series with brain Aβ1-42 (setting [3]), the “Brain Aβ ABEC 24 hr Aβ1-40” value is 46.1% and the “Brain Aβ ABEC 24 hr Aβ1-42” value is listed as 47.0%. For the same compound, the IC50 with brain Aβ1-42 (Rattus norvegicus, read-out: in vivo plasma IC50 for brain Aβ1-42) worked out at 1900 nM. Besides, the IC50 in the series on brain Aβ1-42 (rat, PD model, read-out: IC50 (plasma concentration required for 50% inhibition of Aβ production)) worked out at 1890 nM. In addition, the V/F with brain Aβ1-42 (rat) is listed as 1.94 L/kg. Further, the “in vivo IC50 (corrected for protein binding) relative to in vitro IC50 for Aβ1-42” value in the series on brain Aβ1-42 (rat and 3xTg mouse, M146V allele taken into account for mouse) is given as at most 2 fold. Besides, the “Ka1 (10 mg/kg)” value with brain Aβ1-42 (rat, 10 mg/kg oral) amounted to 0.19 h⁻¹. For the same compound, the “K in” value in the series on brain Aβ1-42 (rat, calculated) is 48 %/h. For the same compound, the “K OUT” value with brain Aβ1-42 (rat, rate constant for degradation of Aβ) turned out to be 0.48 h⁻¹. Besides, in the series on brain Aβ1-42 and Aβ1-40 (setting [4]), the “residual signal for Aβ1-40 after immunodepletion” value came to 4% and the “residual signal for Aβ1-42 after immunodepletion” value was determined as 16%. Further, in the series with brain Aβ1-42 and Aβ1-40 (four daily doses), the “residual pool of Aβ1-40” value is listed as around 7% and the “residual pool of Aβ1-42” value is “ca. 15%”. In addition, in the series on brain Aβ1-42 and Aβ1-40 (setting [5]), the “residual ELISA signal for Aβ1-40” value is reported as 19% and the “residual ELISA signal for Aβ1-42” value amounted to 31%. Also, in series [2] (setting [6]), the “Brain Aβ ABEC 24 hr Aβ1-42” value is on record as 25% and the “Plasma AUC 0–24 hr” value is 17.8 µM·h. For the same compound, the Cmax in series [2] (plasma, oral, Human 700 mg once daily (predicted steady state)) was 1270 nM. The AUC(0-t) in series [2] (plasma, Human 700 mg PO suspension (predicted steady state), read-out: Plasma AUC 0–24 hr) was 17.6 µM·h.
